pKi: −log10 of the molar value.
target: T1, Acetylcholinesterase (Bos taurus) (UniProt P23795)
T1 sequence (whole entry): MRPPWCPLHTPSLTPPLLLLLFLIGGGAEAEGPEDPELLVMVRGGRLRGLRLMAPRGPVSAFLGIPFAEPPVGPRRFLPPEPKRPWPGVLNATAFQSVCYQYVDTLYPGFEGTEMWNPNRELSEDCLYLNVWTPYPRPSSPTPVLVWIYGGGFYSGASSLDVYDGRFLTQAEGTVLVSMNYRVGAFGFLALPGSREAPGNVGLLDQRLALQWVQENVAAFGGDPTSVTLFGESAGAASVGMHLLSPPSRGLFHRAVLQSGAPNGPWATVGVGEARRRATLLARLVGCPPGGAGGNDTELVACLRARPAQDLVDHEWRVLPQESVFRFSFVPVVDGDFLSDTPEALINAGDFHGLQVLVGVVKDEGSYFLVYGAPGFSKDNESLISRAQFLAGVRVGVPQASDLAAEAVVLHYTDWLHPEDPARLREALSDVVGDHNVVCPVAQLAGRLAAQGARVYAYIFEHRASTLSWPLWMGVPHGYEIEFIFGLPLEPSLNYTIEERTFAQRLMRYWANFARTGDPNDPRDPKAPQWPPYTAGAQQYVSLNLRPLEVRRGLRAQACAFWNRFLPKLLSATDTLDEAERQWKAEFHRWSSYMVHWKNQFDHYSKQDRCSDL
Description: Kinetic constant for inhibition of fetal bovine serum acetylcholinesterase

In order of falling k off:
1. C/C=C1\[C@H]2C=C(C)C[C@]1(N)c1ccc(=O)[nH]c1C2 (stereo in doubt; form 1)  0.000367 s⁻¹
2. C/C=C1\[C@H]2C=C(C)C[C@]1(N)c1ccc(=O)[nH]c1C2 (stereo in doubt; form 2)  0.000334 s⁻¹
3. C/C=C1\C2C=C(C)C[C@]1(N)c1ccc(O)nc1C2(C)C (mixture of isomers)  0.000217 s⁻¹

target: T2, Acetylcholinesterase (Bos taurus, UniProt P23795); experiment: Dissociation constant for the inhibition of fetal bovine serum acetylcholinesterase was determined..
T2 sequence (P23795 whole entry): T1 sequence (whole entry)

In order of falling pKi:
1. C/C=C1\[C@H]2C=C(C)C[C@]1(N)c1ccc(=O)[nH]c1C2 (stereo in doubt; form 2) [HUPERZINE A]  8.23
2. C/C=C1\C2C=C(C)C[C@]1(N)c1ccc(O)nc1C2(C)C (mixture of isomers)  7.78
3. C/C=C1\[C@H]2C=C(C)C[C@]1(N)c1ccc(=O)[nH]c1C2 (stereo in doubt; form 1) [HUPERZINE A]  7.63

Source: ChEMBL document CHEMBL1128961 (Bioorg Med Chem Lett, 1996)
